Reference: patent publication US20040198639A1, “Preserved and stable compositions containing peptide copper complexes and methods related thereto” (ProCyte Corporation, priority 2003, published 2004)

Assay: Storage stability of Example 1 solution: amounts of peptide copper complex and preservatives over time
Assay type: physicochemical
Procedure: The preservatives used are non-formaldehyde-donating preservatives. The solution was placed in a series of small sealed glass vials and stored at room temperature, at 40° C. and at 50° C. At various measured times, the amount of the peptide copper complex and of the preservatives was determined.

Amounts when Stored at 40° C. (0 weeks) [mg/mL]	Amounts when Stored at 40° C. (1 week) [mg/mL]	Amounts when Stored at 40° C. (2 weeks) [mg/mL]	Amounts when Stored at 40° C. (3 weeks) [mg/mL]	Amounts when Stored at 40° C. (4 weeks) [mg/mL]	Amounts when Stored at 50° C. (0 weeks) [mg/mL]	Amounts when Stored at 50° C. (1 week) [mg/mL]	Amounts when Stored at 50° C. (2 weeks) [mg/mL]	Amounts when Stored at 50° C. (3 weeks) [mg/mL]	Amounts when Stored at 50° C. (4 weeks) [mg/mL]	Amounts when Stored at Room Temperature (0 weeks) [mg/mL]	Amounts when Stored at Room Temperature (1 week) [mg/mL]	Amounts when Stored at Room Temperature (2 weeks) [mg/mL]	Amounts when Stored at Room Temperature (3 weeks) [mg/mL]	Amounts when Stored at Room Temperature (4 weeks) [mg/mL]	Amounts when Stored at Room Temperature (28 weeks) [mg/mL]	Compound
1.83	1.79	1.80	1.77	1.75	1.83	1.77	1.70	1.65	1.63	1.83	1.81	1.84	1.82	1.81	1.80	COC(=O)c1ccc(O)cc1 [Methylparaben, methylparaben]
0.18	0.18	0.18	0.18	0.18	0.18	0.18	0.17	0.17	0.17	0.18	0.18	0.18	0.18	0.18	0.18	CCCOC(=O)c1ccc(O)cc1 [Propylparaben, propylparaben]

Compound	Amounts when Stored at 40° C. (0 weeks) [mg/mL]	Amounts when Stored at 40° C. (1 week) [mg/mL]	Amounts when Stored at 40° C. (2 weeks) [mg/mL]	Amounts when Stored at 40° C. (3 weeks) [mg/mL]	Amounts when Stored at 40° C. (4 weeks) [mg/mL]	Amounts when Stored at 50° C. (0 weeks) [mg/mL]	Amounts when Stored at 50° C. (1 week) [mg/mL]	Amounts when Stored at 50° C. (2 weeks) [mg/mL]	Amounts when Stored at 50° C. (3 weeks) [mg/mL]	Amounts when Stored at 50° C. (4 weeks) [mg/mL]	Amounts when Stored at Room Temperature (0 weeks) [mg/mL]	Amounts when Stored at Room Temperature (1 week) [mg/mL]	Amounts when Stored at Room Temperature (2 weeks) [mg/mL]	Amounts when Stored at Room Temperature (3 weeks) [mg/mL]	Amounts when Stored at Room Temperature (4 weeks) [mg/mL]	Amounts when Stored at Room Temperature (28 weeks) [mg/mL]
glycyl-L-histidyl-L-lysine:copper(II)	1.06	1.04	1.07	1.06	1.06	1.06	1.05	1.04	1.04	1.04	1.06	1.05	1.06	1.07	1.07	1.05
